For series [1] the following is noted: mice, intravenous administration, data not shown.
For a further series, the target named is human cathepsin L (Homo sapiens (Human), UniProt P07711). As to the kind of experiment: Human cathepsin L inhibition, Z-FR-AMC assay. It is filed as biochemical. The settings on record: for Ki: pH 5.5, 25° C. The essentials: (§1)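 Recombinant human enzymes were assayed at 25°C in sodium acetate pH 5.5 with 1 mM CHAPS, 1 mM EDTA, 5 mM DTT and 10% DMSO final, using the fluorogenic substrate Z-FR-AMC. AMC release (ex 360/em 460 nm) was followed over 30–60 min and converted to rates (μM/s) via an AMC standard curve.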

In the next series the target is SARS-CoV-2 3CL protease (Severe acute respiratory syndrome coronavirus 2 (2019-nCoV) (SARS-CoV-2), UniProt P0DTD1). As to the kind of experiment: biochemical. It is filed as biochemical. To be noted: pH 7.5; for Ki: read-out: Ki* 3CLpro.
The test system of series [2] is SARS-CoV-2 in Vero E6 cells. The series is described as follows: Anti-CoV-2 activity in Vero E6 cells. Format: cell-based.
A further series addresses human cathepsin B (Homo sapiens (Human), UniProt P07858). The series is described as follows: Human cathepsin B inhibition, Z-FR-AMC assay. To be noted: pH 5.5, 25° C. Format: biochemical. The essentials:
as §1

For series [3], the system named is T. b. brucei bloodstream forms. As to the kind of experiment: Growth of axenic cultures of T. b. brucei bloodstream forms (BSFs).
The subject of series [4] is trypanosomes (T. b. brucei, T. cruzi). As to the kind of experiment: Anti-trypanosomal activity, culture not stated. It is filed as cell-based. The settings on record: culture (T. b. brucei PCF/BSF or T. cruzi-infected cardiomyoblasts) not stated.
The nature of series [5]: Detection of aldehyde content using phenylhydrazine. It is filed as physicochemical. The settings on record: aqueous buffer, 1 mM phenylhydrazine, 2 hours. How it is done:
Detection of Aldehyde Content Using Phenylhydrazine. In a 96-well clear microplate, compounds 52 and 36 in DMSO solutions, or pure DMSO as a control, were diluted into the above NMR buffer without addition of DTT to make 250 μL-samples, each containing 0.2 mM of compounds and 10% DMSO (v/v). Upon addition of 1M phenylhydrazine (0.25 μL), the formation of phenylhydrazone in these wells were continuously monitored for 2 hours by measuring UV absorbance at the maximal wavelength of 282 nm.

For a further series, the system named is human dermal fibroblasts. The series is described as follows: Human cell toxicity, resazurin viability. It is filed as cell-based. The essentials: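 Primary human dermal fibroblasts, 2400 cells/well, exposed in duplicate to inhibitors at final 0.001-0.1 mM in 1% DMSO (1% DMSO control) for 48 h at 37 °C. Resazurin then added and viability read by fluorescence (544/590 nm) after further 24 h.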
For orientation: The colour change of resazurin is a common sign of viable cells or microbes.

For series [6], the system named is C2C12 mouse cardiomyoblast cell line. As to the kind of experiment: Host cell cytotoxicity in the T. cruzi infection model. Format: cell-based. A digest of the protocol: (§2)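 C2C12 murine cardiomyoblasts infected with T. cruzi were incubated with compound 48 h at 37 °C, fixed in 2% PFA and stained with 5 μg/ml DAPI. Automated microscopy imaging quantified host cells and parasites separately; host cytotoxicity derived as CC50.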

A short description of series [7]: Solubility of cruzain inhibitors in 10% DMSO, light scattering. Format: physicochemical. As for the experimental part:
Synthetic PVHIs such as 5-16 and 22-24 at final concentrations of 1-200 μM were added to 0.25 mL solutions of 10% DMSO (v/v) in clear 96-well Greiner plates, and absorbance at 620 nm was measured using a BioTek M2 Synergy plate reader at t=0 and 120 min to evaluate increased light scattering and precipitated inhibitor.

Series [8] in a line: Host cell cytotoxicity in the T. cruzi infection model. To be noted: mouse. It is filed as cell-based, mouse. The essentials: as §2
The mark [9] stands for this setting: read-out: EC50 T. b. brucei BSF, axenic culture.
[10] abbreviates: 10% DMSO, read-out: Ki* Human Cathepsin L.
Where [11] appears, read: 10% DMSO, read-out: Ki* Human Cathepsin B.

Structures are written as SMILES. Where “and” joins values, the source holds several entries; their conditions need not be identical. Identical values can stand only once. Entries after “also recorded” stand apart in the source; their conditions may differ. Like-named read-outs stand apart in the source and are kept apart here.

Chain of human cathepsin L (P07711 114-333): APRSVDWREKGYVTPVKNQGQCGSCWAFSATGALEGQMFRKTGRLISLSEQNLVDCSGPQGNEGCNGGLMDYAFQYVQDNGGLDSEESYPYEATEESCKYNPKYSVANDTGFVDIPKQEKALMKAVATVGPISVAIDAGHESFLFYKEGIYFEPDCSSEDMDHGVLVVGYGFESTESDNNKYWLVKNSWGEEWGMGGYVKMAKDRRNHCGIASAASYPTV

The term Ki denotes the equilibrium dissociation constant of an inhibitor or competing ligand from its target. In general, EC50 refers to the concentration that produces a half-maximal response. For the compound `CN1CCN(C(=O)NC(Cc2ccccc2)C(=O)NC2Cc3ccccc3OC2O)CC1` (centres unmarked) [Compound 36], the half-life result in [1] is given as “short half-life”. The values for the Ki on human cathepsin L (read-out: Ki* hCatL), on SARS-CoV-2 3CL protease and on human cathepsin B (read-out: Ki* hCatB) were 0.02 ± 0.0009 µM, greater than 10 µM and 1.27 ± 0.07 µM, respectively. Besides, the figures for the EC50 in [2], in series [3] (setting [9]) and in series [4] were 7.5 µM, 0.6 µM and 0.5 to 29 µM, respectively. In addition, in series [5], the “free aldehyde by phenylhydrazine treatment” value is listed as “no free aldehyde could be detected; also recorded: remained intact after 2 hours”.
One may read the CC50 as the concentration that lowers cell viability or growth by half. Broadly, the solubility is the concentration that dissolves in the medium under given conditions. Turning to `C[n+]1ccccc1/C=C/[C@H](CCc1ccccc1)NC(=O)[C@H](Cc1ccccc1)NC(=O)OCc1ccccc1` [Compound 15, 2-((S,E)-3-((S)-2-(((Benzyloxy)carbonyl)amino)-3-phenylpropanamido)-5-phenylpent-1-en-1-yl)-1-methylpyridin-1-ium], the results for the Ki on human cathepsin L (setting [10]) and on human cathepsin B (setting [11]) were 0.88 ± 0.06 µM and 37 ± 6 µM, respectively. Moreover, the values for the CC50 (with human dermal fibroblasts; in [6]) were greater than 100 µM and greater than 10 µM, respectively. The half-maximal effective concentration (EC50) in series [3] (setting [9]) was determined as 2.8 ± 0.1 µM. Besides, the solubility in [7] was no less than 50 µM.
For the compound `O=C(N[C@@H](Cc1ccccc1)C(=O)N[C@H](/C=C/c1ccccn1)Cc1ccccc1)OCc1ccccc1` [Compound 11, Benzyl ((S)-1-Oxo-3-phenyl-1-(((S,E)-1-phenyl-4-(pyridin-2-yl)-but-3-en-2-yl)amino)propan-2-yl)carbamate], the Ki on human cathepsin L (setting [10]) worked out at 4.3 ± 0.5 µM; on human cathepsin B (setting [11]), 28 ± 4 µM. In addition, in the series with human dermal fibroblasts (human dermal fibroblasts, read-out: Human Cell Cytotoxicity CC50), the CC50 was greater than 100 µM. Moreover, in [8] (host cardiomyoblasts, read-out: C2C12 Cytotoxicity CC50), the CC50 at 48 h was greater than 10 µM.
With `O=C(N[C@@H](Cc1ccccc1)C(=O)N[C@H]1Cc2ccccc2OC1O)OCc1ccccc1` (some centres unmarked) [Compound 30], the “selectivity for cruzain vs human cathepsin L and S” value at human cathepsin L is reported as “more than 10 fold”. Moreover, the Ki at human cathepsin L (read-out: Ki* hCatL) is 0.028 ± 0.0009 µM; at SARS-CoV-2 3CL protease, greater than 10 µM; on human cathepsin B (read-out: Ki* hCatB), 4.5 ± 0.1 µM. Besides, the “Ki* 3CLpro” value on SARS-CoV-2 3CL protease is recorded as “not an inhibitor of 3CL protease”. For the same compound, the EC50 is 5 µM and 2.5 to 7.5 µM in series [2]; 6.8 ± 1.1 µM in [3] (setting [9]). In [6], this compound displayed a CC50 greater than 10 µM.
As to `C[n+]1ccccc1/C=C/[C@H](Cc1ccccc1)NC(=O)[C@H](Cc1ccccc1)NC(=O)OCc1ccccc1.[I-]` [Compound 12, 2-((S,E)-3-((S)-2-(((Benzyloxy)carbonyl)amino)-3-phenylpropanamido)-4-phenylbut-1-en-1-yl)-1-methylpyridin-1-ium Iodide], the figures for the Ki at human cathepsin L (setting [10]) and on human cathepsin B (setting [11]) were 0.7 ± 0.04 µM and 19 ± 4 µM, respectively. The same compound came in with a CC50 in the series with human dermal fibroblasts (human, 48 h) greater than 100 µM. This compound showed a CC50 at 48 h in series [8] greater than 10 µM. Moreover, in [3] (Trypanosoma brucei, read-out: EC50 T. b. brucei BSF, axenic culture), the EC50 was 6.6 ± 0.6 µM. Besides, in series [7] (in 10% DMSO), the solubility is no less than 50 µM.

The record behind these values is US20240150396A1 (The Texas A&M University System, priority 2021, published 2024).
